In US9206128B2 (Constellation Pharmaceuticals, Inc., priority 2011, dated 2015) one finds IC50 data, which are given here for 27 compounds.

The structures appear in SMILES notation. Bounds are passed on as bounds.

As a reminder, the IC50 is the concentration at which inhibition is half-maximal. Read a low IC50 as greater potency.

Assay [1] deals with EZH2 (Homo sapiens, UniProt Q15910). Put plainly: EZH2 activity inhibition assay (rPRC2, 3H SAM, biotinylated oligonucleosomes, FlashPlate). Type of assay: biochemical. Particulars: rPRC2, 2 nM EZH2, 0.2 μM 3H SAM, top concentration 80 μM. The method, then:
(§1) EZH2 Assay: Assays were carried out by mixing rPRC2 together with biotinylated oligonucleosome substrates in the presence of the radio-labeled enzyme co-factor, S-adenosyl-L-methionine (^3H SAM) (Perkin Elmer) and monitoring the enzymatically mediated transfer of tritiated methyl groups from ^3H SAM to histone lysine residues. The amount of resulting tritiated methyl histone product was measured by first capturing the biotinylated oligonucleosomes in streptavidin (SAV) coated FlashPlates (Perkin Elmer), followed by a wash step to remove un-reacted ^3H SAM, and then counting on a TopCount NXT 384 well plate scintillation counter (Perkin Elmer).
A 12.5 μL volume of the HMT enzyme, H3K27me3 peptide and oligonucleosome substrate in assay buffer was added to each well of the assay plate using a Multidrop Combi (ThermoFisher). Compounds were pre-incubated with the enzyme for 20 min, followed by initiation of the methyltransferase reaction by addition of 12.5 μL of 3H SAM in assay buffer (final volume=25 μL). […] Stopped reactions were transferred to SAV coated Flashplates (Perkin Elmer), incubated for 120 min, washed with a plate washer, and then read on the TopCount NXT (1.0 min/well) to measure the amount of methyl histone product formed during the reaction.

For assay [2], the target named is Y641N EZH2 (Homo sapiens, UniProt Q15910, Y641N). Put plainly: Y641N EZH2 activity inhibition assay (as EZH2 assay, reconstituted H3K27Me2 oligonucleosomes as substrate). Type of assay: biochemical. Particulars: Y641N EZH2 mutant enzyme. The method, then:
as §1, with “Elmer). The final assay conditions for EZH2 were as follows: 50 mM Tris Buffer pH 8.5, 1 mM DTT, 69 μM Brij-35 detergent, 5.0 mM MgCl2, 0.1 mg/mL BSA, 0.2 μM ^3H SAM, 0.2 μM biotinylated oligonucleosomes, 3.6 μM H3K27me3 peptide and 2 nM EZH2.” for “Elmer).”
A 12.5 μL volume of the HMT enzyme, H3K27me3 peptide and oligonucleosome substrate in assay buffer was added to each well of the assay plate using a Multidrop Combi (ThermoFisher). Compounds were pre-incubated with the enzyme for 20 min, followed by initiation of the methyltransferase reaction by addition of 12.5 μL of 3H SAM in assay buffer (final volume=25 μL). The final concentrations of compounds ranged from a top default concentration of 80 μM down to 0.16 μM in ten 2-fold dilution steps. Reactions were carried out for 60 minutes and quenched with 20 μL per well of 1.96 mM SAH, 50 mM Tris PH 8.5, 200 mM EDTA. Stopped reactions were transferred to SAV coated Flashplates (Perkin Elmer), incubated for 120 min, washed with a plate washer, and then read on the TopCount NXT (1.0 min/well) to measure the amount of methyl histone product formed during the reaction.

EZH2, sequence (Q15910 whole entry): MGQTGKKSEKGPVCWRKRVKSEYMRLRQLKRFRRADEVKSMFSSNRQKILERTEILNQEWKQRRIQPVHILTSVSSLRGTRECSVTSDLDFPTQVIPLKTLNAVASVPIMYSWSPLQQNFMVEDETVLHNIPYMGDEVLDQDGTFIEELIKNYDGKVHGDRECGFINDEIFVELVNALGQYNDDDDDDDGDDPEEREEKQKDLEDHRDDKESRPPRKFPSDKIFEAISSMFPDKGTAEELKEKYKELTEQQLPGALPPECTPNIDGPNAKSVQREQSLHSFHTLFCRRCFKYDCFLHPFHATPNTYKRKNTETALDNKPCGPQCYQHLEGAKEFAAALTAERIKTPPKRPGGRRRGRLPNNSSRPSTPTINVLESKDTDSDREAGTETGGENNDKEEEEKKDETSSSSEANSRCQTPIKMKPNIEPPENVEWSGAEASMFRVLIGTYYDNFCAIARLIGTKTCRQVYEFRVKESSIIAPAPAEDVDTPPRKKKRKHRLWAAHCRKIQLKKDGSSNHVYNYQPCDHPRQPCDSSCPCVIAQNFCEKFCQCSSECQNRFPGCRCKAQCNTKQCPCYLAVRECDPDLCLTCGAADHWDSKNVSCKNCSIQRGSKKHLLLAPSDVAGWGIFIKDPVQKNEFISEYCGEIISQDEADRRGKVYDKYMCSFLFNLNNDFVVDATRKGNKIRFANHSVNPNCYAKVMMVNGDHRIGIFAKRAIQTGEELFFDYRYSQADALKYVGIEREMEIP
EZH2, sequence (O75530 whole entry partner): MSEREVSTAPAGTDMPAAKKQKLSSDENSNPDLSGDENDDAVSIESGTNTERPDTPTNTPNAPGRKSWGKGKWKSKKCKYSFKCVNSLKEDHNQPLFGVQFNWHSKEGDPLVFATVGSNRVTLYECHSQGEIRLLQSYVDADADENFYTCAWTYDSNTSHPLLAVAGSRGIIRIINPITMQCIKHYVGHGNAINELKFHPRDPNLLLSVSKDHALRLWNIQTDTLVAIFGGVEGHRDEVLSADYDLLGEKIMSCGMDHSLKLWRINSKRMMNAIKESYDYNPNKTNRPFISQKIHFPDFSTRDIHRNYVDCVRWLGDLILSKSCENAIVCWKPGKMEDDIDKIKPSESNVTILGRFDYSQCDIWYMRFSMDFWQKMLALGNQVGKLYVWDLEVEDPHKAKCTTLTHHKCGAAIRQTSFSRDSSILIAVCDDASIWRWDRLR
EZH2, sequence (Q15022 whole entry partner): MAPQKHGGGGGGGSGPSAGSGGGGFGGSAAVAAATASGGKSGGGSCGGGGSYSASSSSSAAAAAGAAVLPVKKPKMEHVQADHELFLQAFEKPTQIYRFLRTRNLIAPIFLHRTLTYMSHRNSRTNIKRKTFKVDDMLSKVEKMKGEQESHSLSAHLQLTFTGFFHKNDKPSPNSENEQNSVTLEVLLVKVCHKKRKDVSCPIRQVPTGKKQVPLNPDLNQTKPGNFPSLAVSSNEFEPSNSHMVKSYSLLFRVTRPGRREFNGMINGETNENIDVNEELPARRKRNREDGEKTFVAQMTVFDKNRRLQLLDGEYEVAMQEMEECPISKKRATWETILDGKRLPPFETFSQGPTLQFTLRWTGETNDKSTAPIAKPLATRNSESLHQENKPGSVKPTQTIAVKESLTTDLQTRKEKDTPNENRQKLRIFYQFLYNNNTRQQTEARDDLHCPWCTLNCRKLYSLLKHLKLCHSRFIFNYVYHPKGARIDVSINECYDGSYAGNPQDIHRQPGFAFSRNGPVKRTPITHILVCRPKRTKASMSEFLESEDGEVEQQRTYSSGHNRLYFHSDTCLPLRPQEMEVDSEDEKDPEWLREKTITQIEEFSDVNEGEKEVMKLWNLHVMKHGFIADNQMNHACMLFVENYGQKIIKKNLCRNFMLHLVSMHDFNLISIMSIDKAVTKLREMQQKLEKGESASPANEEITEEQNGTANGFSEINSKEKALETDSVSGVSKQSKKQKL
Y641N EZH2, sequence (Q15910 whole entry Y641N): as the sequence (Q15910 whole entry) above, with Y641N counted along it
Y641N EZH2, sequence (O75530 whole entry partner): as the sequence (O75530 whole entry partner) above
Y641N EZH2, sequence (Q15022 whole entry partner): as the sequence (Q15022 whole entry partner) above

With `COc1cc(Oc2ccccc2)ccc1C(=O)NCc1c(C)cc(C)[nH]c1=O` [Compound I-32, N-((2-hydroxy-4,6-dimethylpyridin-3-yl)methyl)-2-methoxy-4-phenoxybenzamide], the IC50 was < 1 µM in assay [1] and 1 to 10 µM in assay [2].

Take `Cc1cc(C)c(CNC(=O)c2ccc(Cc3ccccc3)cc2)c(=O)[nH]1` [Compound I-34, 4-benzyl-N-((2-hydroxy-4,6-dimethylpyridin-3-yl)methyl)benzamide]: the figures for the 50% inhibitory concentration (IC50) in assay [1] and in assay [2] were < 1 µM and 1 to 10 µM, respectively.

`Cc1ccc(OC(C)c2ccc(C(=O)NCc3c(C)cc(C)[nH]c3=O)cc2)cc1` (stereo not drawn) [Compound I-35, N-((2-hydroxy-4,6-dimethylpyridin-3-yl)methyl)-4-(1-(p-tolyloxy)ethyl)benzamide]: the results for the concentration for half-maximal inhibition (IC50) in assay [1] and in assay [2] were < 1 µM and 1 to 10 µM, respectively.

For `Cc1cc(C)c(CNC(=O)c2ccc(CN(C)c3ccccc3)cc2)c(=O)[nH]1` [Compound I-36, N-((2-hydroxy-4,6-dimethylpyridin-3-yl)methyl)-4-((methyl(phenyl)amino)methyl)benzamide], the IC50 is 10 to 50 µM in assay [1] and > 80 µM in assay [2].

For `Cc1cc(C)c(CNC(=O)c2ccc(Oc3ccccc3)c(C)c2)c(=O)[nH]1` [Compound I-37, N-((2-hydroxy-4,6-dimethylpyridin-3-yl)methyl)-3-methyl-4-phenoxybenzamide], the IC50 in assay [1] and in assay [2] was 1 to 10 µM in each case.

With `Cc1cc(C)c(CNC(=O)c2ccc(C(C)Oc3ccccc3C)cc2)c(=O)[nH]1` (stereo not drawn) [Compound I-38, N-((2-hydroxy-4,6-dimethylpyridin-3-yl)methyl)-4-(1-(o-tolyloxy)ethyl)benzamide], the results for the 50% inhibitory concentration (IC50) in assay [1] and in assay [2] were < 1 µM and 1 to 10 µM, respectively.

On to `Cc1cccc(OC(C)c2ccc(C(=O)NCc3c(C)cc(C)[nH]c3=O)cc2)c1` (stereo not drawn) [Compound I-39, N-((2-hydroxy-4,6-dimethylpyridin-3-yl)methyl)-4-(1-(m-tolyloxy)ethyl)benzamide], for which the IC50 in assay [1] and in assay [2] was < 1 µM throughout.

For `Cc1cc(C)c(CNC(=O)c2ccc(CNc3ccccc3)cc2)c(=O)[nH]1` [Compound I-40, N-((2-hydroxy-4,6-dimethylpyridin-3-yl)methyl)-4-((phenylamino)methyl)benzamide], the IC50 in assay [1] was in the range of 1 to 10 µM; in assay [2], 10 to 50 µM.

For `Cc1cc(C)c(CNC(=O)c2ccc(C(C)Oc3ccccc3F)cc2)c(=O)[nH]1` (stereo not drawn) [Compound I-41, 4-(1-(2-fluorophenoxy)ethyl)-N-((2-hydroxy-4,6-dimethylpyridin-3-yl)methyl)benzamide], the IC50 in assay [1] and in assay [2] was < 1 µM each time.

With `Cc1cc(C)c(CNC(=O)c2ccc(C(C)Oc3cccc(F)c3)cc2)c(=O)[nH]1` (stereo not drawn) [Compound I-42, 4-(1-(3-fluorophenoxy)ethyl)-N-((2-hydroxy-4,6-dimethylpyridin-3-yl)methyl)benzamide], the IC50 in assay [1] and in assay [2] was < 1 µM each time.

For `Cc1cc(C)c(CNC(=O)c2ccc(C(Oc3ccccc3)C(C)C)cc2)c(=O)[nH]1` (stereo not drawn) [Compound I-43, N-((2-hydroxy-4,6-dimethylpyridin-3-yl)methyl)-4-(2-methyl-1-phenoxypropyl)benzamide], the IC50 in assay [1] was 10 to 50 µM; in assay [2], > 50 µM.

Take `CCC(Oc1ccccc1)c1ccc(C(=O)NCc2c(C)cc(C)[nH]c2=O)cc1` (stereo not drawn) [Compound I-44, N-((2-hydroxy-4,6-dimethylpyridin-3-yl)methyl)-4-(1-phenoxypropyl)benzamide]: the IC50 in assay [1] and in assay [2] was < 1 µM in each case.

`Cc1cc(C)c(CNC(=O)c2ccc3c(c2)CCC3Oc2ccccc2)c(=O)[nH]1` (stereo not drawn) [Compound I-45, N-((2-hydroxy-4,6-dimethylpyridin-3-yl)methyl)-1-phenoxy-2,3-dihydro-1H-indene-5-carboxamide]: the IC50 was > 50 µM in assay [1] and > 80 µM in assay [2].

Regarding `Cc1cc(C)c(CNC(=O)c2ccc(C(C)Oc3ccc(F)cc3)cc2)c(=O)[nH]1` (stereo not drawn) [Compound I-46, 4-(1-(4-fluorophenoxy)ethyl)-N-((2-hydroxy-4,6-dimethylpyridin-3-yl)methyl)benzamide], the 50% inhibitory concentration (IC50) in assay [1] and in assay [2] was < 1 µM throughout.

`Cc1cc(C(F)(F)F)[nH]c(=O)c1CNC(=O)c1ccc(Oc2ccccc2)cc1` [Compound I-47, N-((2-hydroxy-4-methyl-6-(trifluoromethyl)pyridin-3-yl)methyl)-4-phenoxybenzamide]: the concentration for half-maximal inhibition (IC50) in assay [1] is > 50 µM; in assay [2], 10 to 50 µM.

For the compound `Cc1cc(C)c(CNC(=O)c2ccc(CCc3ccccc3)cc2)c(=O)[nH]1` [Compound I-48, N-((2-hydroxy-4,6-dimethylpyridin-3-yl)methyl)-4-phenethylbenzamide], the half-maximal inhibitory concentration (IC50) is 1 to 10 µM in assay [1] and > 80 µM in assay [2].

Take `Cc1cc(C)c(CNC(=O)c2ccc(C(CC(C)C)Oc3ccccc3)cc2)c(=O)[nH]1` (stereo not drawn) [Compound I-49, N-((2-hydroxy-4,6-dimethylpyridin-3-yl)methyl)-4-(3-methyl-1-phenoxybutyl)benzamide]: the 50% inhibitory concentration (IC50) in assay [1] and in assay [2] was 10 to 50 µM in each case.

With `Cc1cc(C)c(CNC(=O)c2ccc([C@@H](C)Oc3ccccc3)cc2C)c(=O)[nH]1` [Compound I-50], the IC50 in assay [1] is 1 to 10 µM; in assay [2], > 80 µM.

As to `Cc1cc(C)c(CNC(=O)c2ccc(C3Cc4ccccc4O3)cc2)c(=O)[nH]1` (stereo not drawn) [Compound I-51, 4-(2,3-dihydrobenzofuran-2-yl)-N-((2-hydroxy-4,6-dimethylpyridin-3-yl)methyl)benzamide], the figures for the half-maximal inhibitory concentration (IC50) in assay [1] and in assay [2] were 1 to 10 µM and > 80 µM, respectively.

On to `Cc1cc(C)c(CNC(=O)c2ccc3c(c2)CCCC3Oc2ccccc2)c(=O)[nH]1` (stereo not drawn) [Compound I-52, N-((2-hydroxy-4,6-dimethylpyridin-3-yl)methyl)-5-phenoxy-5,6,7,8-tetrahydronaphthalene-2-carboxamide], for which the IC50 in assay [1] and in assay [2] was 10 to 50 µM throughout.

`COC(c1ccccc1)c1ccc(C(=O)NCc2c(C)cc(C)[nH]c2=O)cc1` (stereo not drawn) [Compound I-53, N-((2-hydroxy-4,6-dimethylpyridin-3-yl)methyl)-4-(methoxy(phenyl)methyl)benzamide]: the IC50 in assay [1] and in assay [2] was 10 to 50 µM throughout.

On to `Cc1cc(C)c(CNC(=O)c2ccc(COc3ccccc3)c(C)c2)c(=O)[nH]1` [Compound I-54, N-((2-hydroxy-4,6-dimethylpyridin-3-yl)methyl)-3-methyl-4-(phenoxymethyl)benzamide], for which the figures for the 50% inhibitory concentration (IC50) in assay [1] and in assay [2] were < 1 µM and 1 to 10 µM, respectively.

Turning to `Cc1cc(C)c(CNC(=O)c2ccc([C@H](C)Oc3ccccc3)cc2C)c(=O)[nH]1` [Compound I-55, (S)—N-((2-hydroxy-4,6-dimethylpyridin-3-yl)methyl)-2-methyl-4-(1-phenoxyethyl)benzamide], the IC50 in assay [1] and in assay [2] was < 1 µM each time.

With `Cc1cc(C)c(CNC(=O)c2ccc(C(C)n3ccccc3=O)cc2)c(=O)[nH]1` (stereo not drawn) [Compound I-56, N-((2-hydroxy-4,6-dimethylpyridin-3-yl)methyl)-4-(1-(2-oxopyridin-1(2H)-yl)ethyl)benzamide], the values for the half-maximal inhibitory concentration (IC50) in assay [1] and in assay [2] were 1 to 10 µM and > 80 µM, respectively.

As for `Cc1nc(C)c(CNC(=O)c2ccc(Oc3ccccc3)cc2)c(=O)[nH]1` [Compound I-59, N-((4-hydroxy-2,6-dimethylpyrimidin-5-yl)methyl)-4-phenoxybenzamide], the IC50 in assay [1] and in assay [2] was 1 to 10 µM throughout.

`Cc1cc(C)c(CNC(=O)c2ccc(C(C)Oc3ccccn3)cc2)c(=O)[nH]1` (stereo not drawn) [Compound I-60, N-((2-hydroxy-4,6-dimethylpyridin-3-yl)methyl)-4-(1-(pyridin-2-yloxy)ethyl)benzamide]: the IC50 was < 1 µM in assay [1] and 1 to 10 µM in assay [2].

On to `Cc1cc(C)c(CNC(=O)c2ccc(C(C)Oc3ccccc3)c(F)c2)c(=O)[nH]1` (stereo not drawn) [Compound I-63, 3-fluoro-N-((2-hydroxy-4,6-dimethylpyridin-3-yl)methyl)-4-(1-phenoxyethyl)benzamide], for which the IC50 in assay [1] and in assay [2] was < 1 µM in each case.
